Where two headings read alike, the source gives them in different places.
Key:
[1] = system: breast cancer cells (MDA-MB-468); experiment: Cancer cell line growth inhibition, Sulforhodamine B assay, MDA-MB-468; assay type: cell-based; settings: Homo sapiens, read-out: Cancer Cell Line GI50 Range MDA-MB-468
Method in brief: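 MDA-MB-468 cells exposed 5 days to compound at final 10 nM to 50 μM in DMEM with 10% FBS. Growth measured by sulforhodamine B protein staining after TCA fixation, absorbance 570 nm; inhibition relative to DMSO-only cells, GI50 determined for cytotoxic compounds.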

human TTK = biological target: T1, human TTK (Homo sapiens, UniProt P33981); experiment: TTK inhibition assay (indirect ELISA); assay type: biochemical
T1 construct: Active TTK was purchased from Invitrogen as an amino terminal GST fusion of full length human TTK; purchased Invitrogen
T1 sequence (P33981 1-857): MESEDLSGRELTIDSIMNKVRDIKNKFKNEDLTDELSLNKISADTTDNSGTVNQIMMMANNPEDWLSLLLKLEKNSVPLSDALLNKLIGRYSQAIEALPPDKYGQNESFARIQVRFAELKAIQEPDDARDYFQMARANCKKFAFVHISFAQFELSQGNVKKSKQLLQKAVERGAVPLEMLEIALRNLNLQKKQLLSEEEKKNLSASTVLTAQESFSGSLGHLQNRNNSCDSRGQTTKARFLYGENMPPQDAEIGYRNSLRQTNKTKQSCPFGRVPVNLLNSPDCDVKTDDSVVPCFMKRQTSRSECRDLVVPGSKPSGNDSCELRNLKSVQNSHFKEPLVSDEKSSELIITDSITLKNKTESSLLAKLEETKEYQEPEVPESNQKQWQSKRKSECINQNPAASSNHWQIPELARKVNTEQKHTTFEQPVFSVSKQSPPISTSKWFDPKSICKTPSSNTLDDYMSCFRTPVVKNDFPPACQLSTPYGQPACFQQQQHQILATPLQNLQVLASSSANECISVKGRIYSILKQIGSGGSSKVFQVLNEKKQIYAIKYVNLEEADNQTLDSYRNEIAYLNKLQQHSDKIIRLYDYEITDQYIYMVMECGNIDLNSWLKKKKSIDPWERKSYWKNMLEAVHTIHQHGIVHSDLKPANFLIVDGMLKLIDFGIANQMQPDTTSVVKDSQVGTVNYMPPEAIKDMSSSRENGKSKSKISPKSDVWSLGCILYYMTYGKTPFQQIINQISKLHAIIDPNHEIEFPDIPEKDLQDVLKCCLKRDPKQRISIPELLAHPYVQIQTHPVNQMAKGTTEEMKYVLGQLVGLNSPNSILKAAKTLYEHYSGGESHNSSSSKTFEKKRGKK
Method in brief: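 Activity detected by indirect ELISA after compounds sat with full-length GST-TTK for 5 min prior to starting the reaction with ATP. IC50 came from a four-parameter logistic curve of % inhibition, calculated against background and uninhibited control wells.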

[2] = system: colon cancer cells (HCT116); experiment: Cancer cell line growth inhibition, Sulforhodamine B assay, HCT116; assay type: cell-based; settings: Homo sapiens, read-out: Cancer Cell Line GI50 Range HCT116
Method in brief: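 HCT116 cells, 1000–4000 per well, seeded 24 h ahead, then treated 5 days with compound at 10 nM to 50 μM final in DMEM with 10% FBS. Growth measured by sulforhodamine B staining after TCA fixation, A570; GI50 from inhibition relative to DMSO-only cells.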

[3] = system: ovarian cancer cells (PA-1); experiment: Cancer cell line growth inhibition, Sulforhodamine B assay, PA-1; assay type: cell-based; settings: 120 h; Table 1; PA-1, 5 days, SRB; read-out: Cancer Cell Line GI50 Range PA-1
Method: Breast cancer cells (MDA-MB-231 and MDA-MB-468), colon cancer cells (HCT116) and ovarian cancer cells (PA-1 and OVCAR-3) were seeded (1000 to 4000 in 80 μl per well depending on the cell growth rate) into 96 well plates 24 hours before compound overlay. Compounds were prepared as 10 mM stock solutions in 100% DMSO which were diluted with DMEM (Dulbecco's Modified Eagle's Medium) cell growth Medium (Invitrogen, Burlington, ON, Canada) containing 10% FBS (Fetal Bovine Serum) to concentrations ranging from 50 nM to 250 μM. Aliquots (20 μl) from each concentration were overlaid to 80 μl of the pre-seeded cells in the 96 well plates to make final concentrations of 10 nM to 50 μM. The cells were cultured for 5 days before the Sulforhodamine B assay (SRB) was performed to determine the compound's cell growth inhibition activity.
Sulforhodamine B (purchased from Sigma, Oakville, ON, Canada) is a water-soluble dye that binds to the basic amino acids of the cellular proteins. Thus, colorimetric measurement of the bound dye provides an estimate of the total protein mass that is related to the cell number. the cells are fixed in situ by gently aspirating off the culture media and adding 50 μl ice cold 10% Trichloroacetic Acid (TCA) per well and incubate at 4° C. for 30-60 min, The plates are washed with H2O five times and allowed to air dry for 5 min. Addition of 50 μl 0.4% (w/v) SRB solution in 1% (v/v) acetic acid to each well and incubation for 30 min at RT completes the staining reaction. Following staining, plates are washed four times with 1% acetic acid to remove unbound dye and then allowed to air dry for 5 min. The stain is solubilized with 100 μl of 10 mM Tris pH 10.5 per well. Absorbance is read at 570 nm.
The percentage (%) of relative growth inhibition was calculated by comparing to DMSO treated only cells (100%). GI50's were determined for compounds with cytotoxic activity. The GI50 was calculated using GraphPad PRISM software (GraphPad Software, Inc., San Diego, Calif., USA).
In Table 1 below, GI50 value ranges for compound examples against breast cancer cell lines (MDA-MB-468), colon cancer cell lines (HCT116) and ovarian cancer cell lines (PA-1) are given.
In Table 2 below, GI50 value ranges for compound examples against breast cancer cell lines (MDA-MB-231), colon cancer cell lines (HCT116) and ovarian cancer cell lines (PA-1) are given.

[4] = system: Colon 12 tumor initiating cells; experiment: Tumor-initiating cell growth inhibition, Alamar Blue assay, colon TICs; assay type: cell-based; settings: 216 h, 9 days, read-out: Tumor Initiating Cell GI50 Range Colon 12
Text: (§1) Non-tissue or tissue cultured treated T-75 flask and 96-well plates were purchased from VWR. Vitamin B-27 supplement, MEM NEAA (minimum essential medium non essential amino acids), sodium pyruvate, L-glutamine, N2 supplement, penicillin-streptomycin and fungizone/amphotericin B were obtained from Invitrogen. Lipid mixture, heparin and EGF were purchased from Sigma; bFGF from BD Biosciences. Tumor Initiating Cells (TICs) from colon were routinely maintained using non-tissue cultured treated T-75 flasks in DMEM:F12 medium containing 0.2XB-27 supplement, 4 ug/ml heparin, 1×MEM NEAA, 1×sodium pyruvate, 1 mM glutamine, 10 pg/ul bFGF, 20 pg/ul EGF, 1× N2 supplement, lipid mixture, penicillin-streptomycin and fungizone/amphotericin B. Ovarian TICs were routinely maintained using tissue cultured treated T-75 flasks in DMEM:F12 medium containing IXB-27 supplement, 4 ug/ml heparin, 20 pg/ul bFGF, 20 pg/ul EGF and penicillin-streptomycin.
(§2) Compounds described herein were dissolved in DMSO and further diluted in cell culture medium for GI50 determination. Colon TICs were trypsinized and seeded into non-tissue cultured treated 96-well plates with 4,000 cells/well. After 24 h, compound was added into the cell culture at different concentrations, and the final concentration of DMSO was adjusted to 0.1%. Cells were then cultured at 37° C. for 9 days. Ovarian TICs were trypsinized and seeded into tissue cultured treated 96-well plates with 1,000 cells/well. After 24 h, compound was added into the cell culture at different concentrations, and the final concentration of DMSO was adjusted to 0.1%. Cells were then cultured at 37° C. for 6 days. Cell viability was assessed by Alamar Blue assay: 10 ul of Alamar Blue was added into each well. After 4 hours incubation at 37° C., fluorescence was recorded at excitation 544 and emission 590. GI50 (Growth inhibition) was calculated using GraphPad Prism 4.0 software.
(§3) In Table 1 below, GI50 value ranges for compound examples against TICs (Colon 12 and Ovarian 2393A) are given.

[5] = system: Ovarian 2393A tumor initiating cells; experiment: Tumor-initiating cell growth inhibition, Alamar Blue assay, ovarian TICs; assay type: cell-based; settings: 144 h, 6 days, read-out: Tumor Initiating Cell GI50 Range Ovarian 2393A
Text: as §1, §2, §3

[6] = system: ovarian cancer cells (OVCAR-3); experiment: Cancer cell line growth inhibition, Sulforhodamine B assay, OVCAR-3; assay type: cell-based; settings: Homo sapiens, OVCAR-3, OVCAR-3 ovarian cancer cell line; read-out: Cancer Cell Line GI50 Range OVCAR-3
Method in brief: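 OVCAR-3 cells were seeded 24 h before compound addition, then exposed for 5 days to final concentrations of 10 nM to 50 μM in DMEM with 10% FBS. Growth was measured by TCA fixation and sulforhodamine B staining with absorbance at 570 nm. Inhibition was relative to DMSO-only cells, and GI50 came from curve fitting.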

[7] = MDA-MB-468, 120 h, Table 1, MDA-MB-468, 5 days, SRB
[8] = Table 1, 16 μM ATP (asterisk), read-out: TTK IC50 Range
[9] = HCT-116, 120 h, Table 1, HCT116, 5 days, SRB
[10] = Table 1, colon TICs, Alamar Blue
[11] = Table 1, ovarian TICs, Alamar Blue
[12] = MDA-MB-468, MDA-MB-468 breast cancer cell line
[13] = HCT-116, HCT116 colon cancer cell line
[14] = 100 μM ATP, read-out: TTK IC50 Range

| Structure (SMILES) | GI50 [1, 7] [nM] | IC50 (human TTK; [8]) [nM] | GI50 [2, 9] [nM] | GI50 [3] [nM] | GI50 [4, 10] [nM] | GI50 [5, 11] [nM] | GI50 [6] [nM] | GI50 ([4]; Colon 12 TICs) [nM] | GI50 ([5]; Ovarian 2393A TICs) [nM] | GI50 [1, 12] [nM] | IC50 (human TTK; 16 μM ATP (Sigma cat# A7699), read-out: TTK IC50 Range (denoted with an asterisk)) [nM] | GI50 [2, 13] [nM] | IC50 (human TTK; [14]) [nM] |
| --- | --- | --- | --- | --- | --- | --- | --- | --- | --- | --- | --- | --- | --- |
| O=C(NC1CC1)c1ccc(-c2cnn3c(NCC4CCOCC4)nc(Oc4cccnc4)nc23)cc1 [Example A13, N-cyclopropyl-4-(2-(pyridin-3-yloxy)-4-(((tetrahydro-2H-pyran-4-yl)methyl)amino)-pyrazolo[1,5-a][1,3,5]triazin-8-yl)benzamide] | > 500 | < 100 | > 500 | 100 to 500 |  |  |  |  |  |  |  |  |  |
| Cc1cc(-c2cnn3c(NCC4CCOCC4)nc(Oc4ccccc4)nc23)ccc1C(=O)NC1CC1 [Example A3, N-cyclopropyl-2-methyl-4-(2-phenoxy-4-(((tetrahydro-2H-pyran-4-yl)methyl)amino)pyrazolo[1,5-a][1,3,5]triazin-8-yl)benzamide] | ≤ 100 | < 100 | ≤ 100 | ≤ 100 | ≤ 100 | 100 to 500 |  |  |  |  |  |  |  |
| Cc1cc(-c2cnn3c(NCC4CCOCC4)nc(NC4CCCC4)nc23)ccc1C(=O)NC1CC1 [Example A2, 4-(2-(Cyclopentylamino)-4-(((tetrahydro-2H-pyran-4-yl)methyl)amino)pyrazolo[1,5-a][1,3,5]triazin-8-yl)-N-cyclopropyl-2-methylbenzamide] | 100 to 500 | < 100 | 100 to 500 | ≤ 100 | ≤ 100 | 100 to 500 |  |  |  |  |  |  |  |
| O=C(NC1CC1)c1ccc(-c2cnn3c(NCC4CCOCC4)nc(Oc4ccccc4)nc23)cc1 [Example A10, N-cyclopropyl-4-(2-phenoxy-4-(((tetrahydro-2H-pyran-4-yl)methyl)amino)pyrazolo[1,5-a][1,3,5]triazin-8-yl)benzamide] | > 500 | < 100 | 100 to 500 | 100 to 500 |  |  |  |  |  |  |  |  |  |
| O=C(NC1CC1)c1ccc(-c2cnn3c(NCCN4CCOCC4)nc(Oc4cccnc4)nc23)cc1 [Example A8, N-cyclopropyl-4-(4-((2-morpholinoethyl)amino)-2-(pyridin-3-yloxy)pyrazolo[1,5-a][1,3,5]triazin-8-yl)benzamide] | > 500 | > 500 | > 500 | > 500 |  |  |  |  |  |  |  |  |  |
| O=C(NC1CC1)c1ccc(-c2cnn3c(NCC4CCOCC4)nc(OC4CCCC4)nc23)cc1 [Example A11, 4-(2-(cyclopentyloxy)-4-(((tetrahydro-2H-pyran-4-yl)methyl)amino)pyrazolo[1,5-a][1,3,5]triazin-8-yl)-N-cyclopropylbenzamide] | > 500 | < 100 | 100 to 500 | 100 to 500 |  |  |  |  |  |  |  |  |  |

Other lines, results leading:

| GI50 [1, 7] [nM] | IC50 (human TTK; [8]) [nM] | GI50 [2, 9] [nM] | GI50 [3] [nM] | GI50 [4, 10] [nM] | GI50 [5, 11] [nM] | GI50 [6] [nM] | GI50 ([4]; Colon 12 TICs) [nM] | GI50 ([5]; Ovarian 2393A TICs) [nM] | GI50 [1, 12] [nM] | IC50 (human TTK; 16 μM ATP (Sigma cat# A7699), read-out: TTK IC50 Range (denoted with an asterisk)) [nM] | GI50 [2, 13] [nM] | IC50 (human TTK; [14]) [nM] | Structure (SMILES) |
| --- | --- | --- | --- | --- | --- | --- | --- | --- | --- | --- | --- | --- | --- |
|  |  |  |  |  |  | > 500 | 100 to 500 | 100 to 500 | > 500 | < 100 | > 500 |  | O=C(NC1CC1)c1ccc(-c2cnn3c(NCC4CCOCC4)nc(Oc4ccccc4)nc23)cc1F [Example C7] |
|  |  |  |  |  |  | 100 to 500 | 100 to 500 | 100 to 500 | 100 to 500 |  | 100 to 500 | < 100 | Cc1cc(-c2cnn3c(NCC4CCOCC4)cc(N[C@H]4CC[C@H](O)CC4)nc23)ccc1C(=O)NC1CC1 [Example C48] |
|  |  |  |  |  |  | 100 to 500 | 100 to 500 | 100 to 500 | 100 to 500 |  | ≤ 100 | < 100 | Cc1cc(-c2cnn3c(NCC4CCOCC4)cc(OC4CCN(C5COC5)C4)nc23)ccc1C(=O)NC1CC1 (stereo not shown) [Example C116] |
|  |  |  |  |  |  | ≤ 100 | ≤ 100 | ≤ 100 | ≤ 100 |  | ≤ 100 | < 100 | Cc1cc(-c2cnn3c(NC[C@H]4C[C@H](O)C4)cc(Oc4cccnc4)nc23)ccc1C(=O)NC1CC1 [Example C144] |

Source: patent publication US9573954B2, “Pyrazolopyrimidine compounds” (University Health Network, priority 2012, dated 2017)
